This note sets out measurements from patent publication US9018224B2, “Substituted cyclopropyl compounds useful as GPR119 agonists” (Merck Sharp & Dohme Corp., priority 2011, dated 2015).

The experiment deals with T1, human GPR119 (Homo sapiens, UniProt Q8TDV5).
T1 sequence (Q8TDV5 1-308 limits assumed): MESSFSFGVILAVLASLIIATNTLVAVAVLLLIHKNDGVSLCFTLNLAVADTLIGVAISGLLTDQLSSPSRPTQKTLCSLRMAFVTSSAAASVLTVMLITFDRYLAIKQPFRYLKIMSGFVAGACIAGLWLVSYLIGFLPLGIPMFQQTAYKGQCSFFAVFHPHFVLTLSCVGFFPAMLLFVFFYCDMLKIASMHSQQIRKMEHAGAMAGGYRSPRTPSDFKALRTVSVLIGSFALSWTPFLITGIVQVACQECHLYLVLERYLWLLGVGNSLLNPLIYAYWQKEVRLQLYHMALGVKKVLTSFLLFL
The experiment is described as follows: Measurement of GPR119 signaling by cAMP (LANCE cAMP kit or HTRF) in HEK293 cells transfected with human GPR119. The class given is cell-based. As to conditions: agonist cAMP response in HEK293 cells stably transfected with human GPR119; patent does not say which of the two cAMP formats (LANCE or HTRF). Summed up: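 LANCE TR-FRET cAMP readout; detection with Eu-SA/biotin-cAMP tracer for 3 h, signal converted to cAMP via standard curve, duplicates, 4-parameter fit vs DMSO basal and internal agonist maximum.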
For orientation: TR-FRET usually uses a lanthanide donor and a delayed reading to cut background.
`Cc1n[nH]c2c1CN(C(=O)Cc1ccc(OCC[C@@H]3C[C@@H]3C3CCN(c4ncc(Cl)cn4)CC3)cc1F)CC2` [Example 140]: it took 3.2 nM to reach a half-maximal effect (EC50).

The molecule `COc1cnc(N2CCC([C@H]3C[C@H]3CCOc3cc(F)c(CC(=O)N4CCOCC4)c(F)c3)CC2)nc1` [Example 215] showed an EC50 of 0.29 nM.

Take `O=C(Cc1ccc(OCC[C@@H]2C[C@@H]2C2CCN(c3ncc(Cl)cn3)CC2)cc1F)N1CCc2ncncc2C1` [Example 127]: the concentration for a half-maximal effect (EC50) was 1.5 nM.

In turn, `COCc1cnc(N2CCC([C@H]3C[C@H]3CCOc3cc(F)c(CC(=O)N4CCOCC4)c(F)c3)CC2)nc1` [Example 223] returned an EC50 of 0.38 nM.

In turn, `CC1CN(C(=O)Cc2ccc(OCC[C@@H]3C[C@@H]3C3CCN(c4ncc(Cl)cn4)CC3)cc2F)C1` [Example 64] displayed an EC50 of 0.95 nM.

`CCc1cnc(N2CCC([C@H]3C[C@H]3CCOc3ccc(CC(=O)N4CCC4)c(Cl)c3)CC2)nc1` [Example 21] had an EC50 of 0.19 nM.

`COC(=O)Cc1ccc(OCC[C@@H]2C[C@@H]2C2CCN(c3ncc(Cl)cn3)CC2)cc1F` [Example 61] returned a half-maximal effective concentration (EC50) of 0.7 nM.

For `COc1cnc(N2CCC([C@H]3C[C@H]3CCOc3ccc(CC(=O)N4CCOCC4)c(F)c3)CC2)nc1` [Example 38], the EC50 was found to be 1.4 nM.

The molecule `O=C(Cc1ccc(OCC[C@@H]2C[C@@H]2C2CCN(c3ncc(Cl)cn3)CC2)cc1F)N1Cc2nc(-c3ccccc3)[nH]c2C1` [Example 197] showed an EC50 of 6.8 nM.

In turn, `COc1cnc(N2CCC([C@H]3C[C@H]3CCOc3cc(F)c(CC(=O)N4CC(C)(O)C4)c(F)c3)CC2)nc1` [Example 212] registered a concentration for a half-maximal effect (EC50) of 0.88 nM.

The molecule `CC1CCC(N(C)C(=O)Cc2ccc(OCC[C@@H]3C[C@@H]3C3CCN(c4ncc(Cl)cn4)CC3)cc2F)CC1` (stereo partly drawn) [Example 161] registered a 50% effective concentration (EC50) of 3.7 nM.

The molecule `CN(C)C(=O)Cc1ccc(OCC[C@@H]2C[C@@H]2C2CCN(c3ncc(Cl)cn3)CC2)cc1F` [Example 81] had a concentration for a half-maximal effect (EC50) of 0.63 nM.

Regarding `CC1(NC(=O)Cc2ccc(OCC[C@@H]3C[C@@H]3C3CCN(c4ncc(Cl)cn4)CC3)cc2F)CCCC1` [Example 94], the EC50 was determined as 6.5 nM.

Turning to `O=C(Cc1ccc(OCC[C@@H]2C[C@@H]2C2CCN(c3ncc(Cl)cn3)CC2)cc1F)N1Cc2sccc2C(O)C1` (stereo partly drawn) [Example 173], a half-maximal response (EC50) required 0.97 nM.

In the case of `CN(CC1CCCCC1)C(=O)Cc1ccc(OCC[C@@H]2C[C@@H]2C2CCN(c3ncc(Cl)cn3)CC2)cc1F` [Example 167], a half-maximal effect (EC50) was put at 7.6 nM.

The molecule `O=C(Cc1ccc(OCC[C@@H]2C[C@@H]2C2CCN(c3ncc(Cl)cn3)CC2)cc1F)N1CCc2oc(C3CC3)nc2C1` [Example 143] had a half-maximal effective concentration (EC50) of 4.7 nM.

Regarding `O=C(Cc1ccc(OCC[C@@H]2C[C@@H]2C2CCN(c3ncc(Cl)cn3)CC2)cc1F)N1CCc2ncccc2C1` [Example 198], a half-maximal response (EC50) required 1.3 nM.

For `CCc1cnc(N2CCC([C@H]3C[C@H]3CCOc3ccc(CC(=O)N4CCC4)cn3)CC2)nc1` [Example 241, 1-(azetidin-1-yl)-2-[6-(2-{(1S,2R)-2-[1-(5-ethylpyrimidin-2-yl)piperidin-4-yl]cyclopropyl}ethoxy)pyridin-3-yl)ethanone], the midpoint of the response, the EC50, lay at 7.4 nM.

The molecule `O=C(Cc1ccc(OCC[C@@H]2C[C@@H]2C2CCN(c3ncc(Cl)cn3)CC2)cc1F)NC1CCCC1F` (stereo partly drawn) [Example 111] had a 50% effective concentration (EC50) of 3 nM.

In the case of `COc1cnc(N2CCC([C@H]3C[C@H]3CCOc3ccc(CC(=O)N4CC(O)C4)c(F)c3)CC2)nc1` [Example 33, 2-[2-fluoro-4-(2-{(1S,2R)-2-[1-(5-methoxypyrimidin-2-yl)piperidin-4-yl]cyclopropyl}ethoxy)phenyl]-1-(3-hydroxyazetidin-1-yl)ethanone], it took 2.1 nM to reach a half-maximal effect (EC50).

In turn, `CCOc1cnc(N2CCC([C@H]3C[C@H]3CCOc3cc(F)c(CC(=O)N4CC(F)C4)c(F)c3)CC2)nc1` [Example 230] yielded an EC50 of 0.11 nM.

In the case of `CC[C@@H](CO)NC(=O)Cc1ccc(OCC[C@@H]2C[C@@H]2C2CCN(c3ncc(Cl)cn3)CC2)cc1F` [Example 103], the concentration giving a half-maximal response (EC50) stood at 9.7 nM.

Take `COc1cnc(N2CCC([C@H]3C[C@H]3CCOc3cc(F)c(CC(=O)N4CCC4)c(F)c3)CC2)nc1` [Example 214]: the EC50 came out at 0.2 nM.

On to `CC1CN(C(=O)Cc2ccc(OCC[C@@H]3C[C@@H]3C3CCN(c4ncc(Cl)cn4)CC3)cc2F)Cc2nnc(C(F)(F)F)n21` (stereo partly drawn) [Example 175], for which the 50% effective concentration (EC50) amounted to 1.1 nM.

`CCOc1cnc(N2CCC([C@H]3C[C@H]3CCOc3cc(F)c(CC(=O)N4CCC4)c(F)c3)CC2)nc1` [Example 229, 1-(azetidin-1-yl)-2-[4-(2-{(1S,2R)-2-[1-(5-ethoxypyrimidin-2-yl)piperidin-4-yl]cyclopropyl}ethoxy)-2,6-difluorophenyl]ethanone] came in with a concentration for a half-maximal effect (EC50) of 0.14 nM.

`O=C(Cc1ccc(OCC[C@@H]2C[C@@H]2C2CCN(c3ncc(Cl)cn3)CC2)cc1F)N1CCC(F)(F)CC1` [Example 86] had an EC50 of 0.8 nM.

For `O=C(Cc1ccc(OCC[C@@H]2C[C@@H]2C2CCN(c3ncc(Cl)cn3)CC2)cc1F)N1CCc2c(C3CC3)n[nH]c2C1` [Example 142], it took 3.1 nM to reach a half-maximal effect (EC50).

`O=C(Cc1ccc(OCC[C@@H]2C[C@@H]2C2CCN(c3ncc(Cl)cn3)CC2)cc1F)N1CCc2cncnc2C1` [Example 129]: the EC50 stood at 0.29 nM.

`COc1cnc(N2CCC([C@H]3C[C@H]3CCOc3ccc(CC(=O)N4CCC4)c(F)c3)CC2)nc1` [Example 37] yielded a concentration giving a half-maximal response (EC50) of 0.94 nM.

In turn, `O=C(Cc1ccc(OCC[C@@H]2C[C@@H]2C2CCN(c3ncc(Cl)cn3)CC2)cc1F)N1CCc2[nH]c(C(F)(F)F)nc2C1` [Example 192] returned an EC50 of 2.1 nM.

For the molecule `O=C(Cc1ccc(OCC[C@@H]2C[C@@H]2C2CCN(c3ncc(Cl)cn3)CC2)cc1F)N1CCc2nc(C3CC3)oc2C1` [Example 150], a half-maximal response (EC50) required 3.2 nM.

The molecule `COCc1cnc(N2CCC([C@H]3C[C@H]3CCOc3ccc(CC(=O)N4CCOCC4)c(Cl)c3)CC2)nc1` [Example 32] gave an EC50 of 1.1 nM.

With `CCOCc1cnc(N2CCC([C@H]3C[C@H]3CCOc3ccc(CC(=O)N4CC(F)(F)C4)c(F)c3)CC2)nc1` [Example 202], the EC50 amounted to 0.3 nM.

With `CC(C)CN(C)C(=O)Cc1ccc(OCC[C@@H]2C[C@@H]2C2CCN(c3ncc(Cl)cn3)CC2)cc1F` [Example 166], a half-maximal response (EC50) required 2 nM.

Regarding `CCc1cnc(N2CCC([C@H]3C[C@H]3CCOc3ccc(CC(=O)N(C)C)c(C)c3)CC2)nc1` [Example 19], the EC50 stood at 2.3 nM.

`CCc1cnc(N2CCC([C@H]3C[C@H]3CCOc3ccc(CC(=O)N4CCC4)c(OC)c3)CC2)nc1` [Example 27]: a half-maximal response (EC50) required 3.2 nM.

Take `CCN(CC)C(=O)Cc1ccc(OCC[C@@H]2C[C@@H]2C2CCN(c3ncc(Cl)cn3)CC2)cc1F` [Example 98]: the concentration giving a half-maximal response (EC50) stood at 9.2 nM.

For the molecule `COCc1cnc(N2CCC([C@H]3C[C@H]3CCOc3ccc(CC(=O)N4CC(C)(C)C4)cc3)CC2)nc1` [Example 13], it took 5.2 nM to reach a half-maximal effect (EC50).

Molecule `O=C(Cc1ccc(OCC[C@@H]2C[C@@H]2C2CCN(c3ncc(Cl)cn3)CC2)cc1F)N1CC(O)C1` [Example 65] returned an EC50 of 0.22 nM.

Molecule `CN(Cc1n[nH]c(=O)[nH]1)C(=O)Cc1ccc(OCC[C@@H]2C[C@@H]2C2CCN(c3ncc(Cl)cn3)CC2)cc1F` [Example 158] came in with an EC50 of 6.6 nM.

Molecule `O=C(Cc1ccc(OCC[C@@H]2C[C@@H]2C2CCN(c3ncc(Cl)cn3)CC2)cc1)N1CCCC1` [Example 3] yielded a concentration giving a half-maximal response (EC50) of 2.1 nM.

Turning to `CCC(C)NC(=O)Cc1ccc(OCC[C@@H]2C[C@@H]2C2CCN(c3ncc(Cl)cn3)CC2)cc1F` (stereo partly drawn) [Example 100], the EC50 stood at 1.8 nM.

With `COCc1cnc(N2CCC([C@H]3C[C@H]3CCOc3ccc(CC(=O)N4CCC4)c(F)c3)CC2)nc1` [Example 41, 1-(azetidin-1yl)-2-(2-fluoro-4-{2 [(1S,2R)-2-{1-[5-(methoxylmethyl)pyrimidin-2yl]piperidin-4-yl}cyclopropyl]ethoxyl}phenyl)ethanone], the EC50 was 0.77 nM.

The molecule `CC1(C)CN(C(=O)Cc2ccc(OCC[C@@H]3C[C@@H]3C3CCN(c4ncc(Cl)cn4)CC3)cc2F)C1` [Example 70] yielded a concentration giving a half-maximal response (EC50) of 0.8 nM.

In the case of `Cc1cnc(Cc2ccc(OCC[C@@H]3C[C@@H]3C3CCN(c4ncc(Cl)cn4)CC3)cc2F)o1` [Example 243, 5-chloro-2-{4-[(1R,2S)-2-(2-{3-fluoro-4-[(5-methyl-1,3-oxazol-2-yl)methyl]phenoxy}ethyl)cyclopropyl]piperidin-1-yl}pyrimidine], the concentration giving a half-maximal response (EC50) came out at 2.5 nM.

In the case of `Cn1nc(C(F)(F)F)c2c1CCN(C(=O)Cc1ccc(OCC[C@@H]3C[C@@H]3C3CCN(c4ncc(Cl)cn4)CC3)cc1F)C2` [Example 187], the concentration giving a half-maximal response (EC50) was 2 nM.

`COCc1cnc(N2CCC([C@H]3C[C@H]3CCOc3ccc(CC(=O)N(C)C)c(Cl)c3)CC2)nc1` [Example 28, 2-(2-chloro-4-{2-[(1S,2R)-2-{1-[5-(methoxymethyl)pyrimidin-2-yl]piperidin-4-yl}cyclopropyl]ethoxy}phenyl)-N,N-dimethylacetamide] gave a concentration for a half-maximal effect (EC50) of 2.3 nM.

In the case of `CN(CCC1CCOCC1)C(=O)Cc1ccc(OCC[C@@H]2C[C@@H]2C2CCN(c3ncc(Cl)cn3)CC2)cc1F` [Example 165], the concentration for a half-maximal effect (EC50) was determined as 2.6 nM.

The term EC50 denotes the concentration at which the effect is half-maximal. Read a high EC50 as lower potency in that assay.
